For 23 sequences, target mRNA inhibition results are on record in the OligoGym collection.

The data set addresses APOL1. As to conditions: ASO.

Values joined by “and” are separate entries in the source; they are usually repeats but may differ in a detail not shown here. Identical values can stand only once. After the bases stand the sugars from the 5' end (letter, count) and the backbone: PS all phosphorothioate, else s phosphorothioate and o phosphodiester by linkage. Methylation of C is not given here. e = 2'-O-(2-methoxyethyl) (MOE); k = constrained ethyl (cEt); d = 2'-deoxy (DNA)

Take “TGGTTCAAAAGCAGCA (sugars k2 d4 e3 k2 d5, PS)”: the target mRNA inhibition is 41% (A431, 0.0156 µM); 68% (A431, 0.0625 µM); 85% (A431, 0.25 µM); 91% (A431, 1 µM); 93% (A431, 2 µM).
Sequence “CAGTTTTGTAAGTGCA (sugars kkkddddkekekdddd, PS)” showed a target mRNA inhibition (A431, 2 µM) of 87%.
Regarding CAGATTCTGTGTGCTC (sugars k4 d9 k3, PS), the target mRNA inhibition (A431, 0.0625 µM) is 51%; the target mRNA inhibition (A431, 0.25 µM) was determined as 68%; the target mRNA inhibition (A431, 1 µM) was 75%.
On to CCGTTCCAGGCCTCAT (sugars k4 d9 k3, PS), for which the target mRNA inhibition was 48% (A431, 0.0625 µM); 66% (A431, 0.25 µM); 65% (A431, 1 µM).
In turn, “AATTCTATTAGAGGGC (sugars kkddddekekeddddd, PS)” registered a target mRNA inhibition (A431, 2 µM) of 79%.
On the same count and under the same terms, the value for “AGTATTGTTTTTGTGG (sugars k2 d4 e3 k2 d5, PS)” was 90%.
As for “GCTAATTTTCTGACTG (sugars kkkddddkdkdkdddd, PS)”, the target mRNA inhibition runs as follows: (A431, 0.0156 µM) 40%; (A431, 0.04 µM) 34%; (A431, 0.0625 µM) 66%; (A431, 0.25 µM) 85%; (A431, 1 µM) 93%; (A431, 2 µM) 93%.
Sequence “ATCAGATGGGTACTTC (sugars kkkddddkekekdddd, PS)” registered a target mRNA inhibition (A431, 2 µM) of 54%.
Under “A431, 2 µM”, “CAGATGGGTACTTCTG (sugars kdddddkekekddddd, PS)” showed a target mRNA inhibition of 44%.
In turn, “CGTCAATATATTCTTT (sugars kdddddkekekddddd, PS)” yielded a target mRNA inhibition (A431, 2 µM) of 90%.
Consider “GTGTTATATTTGATCC (sugars kkddddkekekddddd, PS)”, for which, under “A431, 2 µM”, the target mRNA inhibition came out at 78%.
“AAGATTGGCTCTGGCT (sugars kkddddkdkdkddddd, PS)” returned a target mRNA inhibition (A431, 2 µM) of 65%.
TCACATACTCTCTGGG (sugars k4 d9 k3, PS): the target mRNA inhibition was determined as 24% (A431, 0.0625 µM); 62% (A431, 0.25 µM); 77% (A431, 1 µM).
With “CTTTATACCAGTGTCT (sugars kekddddeekkddddd, PS)”, the target mRNA inhibition worked out at 22% (A431, 0.0156 µM); 41% (A431, 0.0625 µM); 69% (A431, 0.25 µM); 89% (A431, 1 µM); 95% (A431, 2 µM).
In the case of TACATTTGGAGATCTG (sugars k4 d9 k3, PS), the target mRNA inhibition stood at 61% (A431, 0.0625 µM); 80% (A431, 0.25 µM); 90% (A431, 1 µM).
“GGGTTATGAAATTATT (sugars kkkddddkekekdddd, PS)”: under “A431, 2 µM”, the target mRNA inhibition is 73%.
For the sequence “TCCGTCAATATATTCT (sugars kkddddekekeddddd, PS)”, the target mRNA inhibition came to 33% (A431, 0.0156 µM); 50% (A431, 0.04 µM); 61% (A431, 0.0625 µM); 86% (A431, 0.25 µM); 96% (A431, 1 µM); 97% (A431, 2 µM).
“GAACGCAATGCTGACT (sugars kkkddddkekekdddd, PS)” yielded a target mRNA inhibition (A431, 2 µM) of 48%.
Consider “AGCTTTAAACTCAGGT (sugars kddddkekekeddddd, PS)”, for which the target mRNA inhibition (A431, 2 µM) came out at 52%.
Regarding ACACATCATTGGGTTA (sugars k4 d9 k3, PS), the target mRNA inhibition reads like this: (A431, 0.0625 µM) 54%; (A431, 0.25 µM) 75%; (A431, 1 µM) 87%.
In turn, “TTTATACCAGTGTCTT (sugars kkdddddkekeddddd, PS)” returned a target mRNA inhibition (A431, 2 µM) of 84%.
Consider “AGTTTTGTAAGTGCAA (sugars k2 d4 e3 k2 d5, PS)”, for which the target mRNA inhibition stood at 10% (A431, 0.0156 µM); 49% (A431, 0.0625 µM); 79% (A431, 0.25 µM); 93% (A431, 1 µM); 94% (A431, 2 µM).
Turning to ATTCTATTAGAGGGCT (sugars k4 d9 k3, PS), the target mRNA inhibition by setting is: (A431, 0.0156 µM) 31%; (A431, 0.0625 µM) 54% and 53% and 55%; (A431, 0.25 µM) 82% and 76% and 86%.
